Here are results for 14 compounds from ChEMBL document CHEMBL1201862, “PubChem BioAssay data set” (2004).

Test systems include U-251; OVCAR-5; HOP-92; MOLT-4; HCC 2998; NCI-H226; 786-0; SK-OV-3; OVCAR-4; HCT-15; SF-295; UACC-257; HOP-62; SN12C; UO-31.
Experiment in all cases: NCI-60 cell line screen, 48 h

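These data come from cells grown in 96-well plates and exposed to compound for 48 hours at five concentrations. Abbreviation: GI50, concentration required for 50% inhibition of growth.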 The source made the active and inactive calls. No stated cut-off is given here; in the data, active = GI50 up to about 1.1 µM and inactive = higher. Some results are limits rather than exact numbers.

On to `Cc1ccccc1N(CCC#N)C1=NN(C(=O)CC(=O)Nc2ccccc2)C(c2ccccc2)C1` (stereo not given), for which the GI50 with U-251, in the test with OVCAR-5, with HOP-92, in the test on MOLT-4, in the test with HCC 2998 and with NCI-H226 was > 100 µM (inactive) each time. The GI50 in the test on 786-0 is > 100 µM (inactive); in the test with SK-OV-3, > 100 µM (inactive); in the test on OVCAR-4 it was > 100 µM (inactive); in the test with HCT-15, > 100 µM; in the test with SF-295 it was > 100 µM (inactive); in the test on UACC-257, > 100 µM (inactive). Also, the GI50 in the test with HOP-62, in the test with SN12C and with UO-31 was > 100 µM (inactive) throughout.

`NCC(NC(=O)OCc1ccccc1)C(=O)O` (stereo not given): the GI50 in the test with U-251, in the test on OVCAR-5, with HOP-92, in the test with MOLT-4, in the test with HCC 2998 and in the test on NCI-H226 was > 50 µM (inactive) throughout. Also, the GI50 is > 50 µM (inactive) in the test on 786-0; > 50 µM (inactive) in the test on SK-OV-3; > 50 µM (inactive) in the test with OVCAR-4; > 50 µM in the test on HCT-15; > 50 µM (inactive) with SF-295; > 50 µM (inactive) in the test on UACC-257. The GI50 in the test on HOP-62, in the test on SN12C and in the test on UO-31 was > 50 µM (inactive) each time.

On to `Cc1ccc(S(=O)(=O)C(CC(NC=O)S(=O)(=O)c2ccc(C)cc2)NC=O)cc1` (stereo not given), for which the GI50 in the test with U-251, in the test with HOP-92, in the test with MOLT-4, in the test with HCC 2998, in the test with NCI-H226 and in the test on 786-0 was > 100 µM (inactive) throughout. Further, the GI50 is > 100 µM (inactive) with SK-OV-3; > 100 µM (inactive) with OVCAR-4; > 100 µM in the test on HCT-15; > 100 µM (inactive) in the test on SF-295; > 100 µM (inactive) with UACC-257; > 100 µM (inactive) in the test on HOP-62. The GI50 in the test on SN12C and in the test on UO-31 was > 100 µM (inactive) throughout.

Take `CCN1C[C@]2(C)CC[C@H](OC)C34C1C([C@H](OC(C)=O)[C@@H]32)[C@@]1(OC)C[C@H](OC)[C@H]2C[C@@H]4[C@@H]1[C@H]2O`: the GI50 with U-251, with OVCAR-5, in the test with HOP-92, with MOLT-4, with HCC 2998 and in the test with NCI-H226 was > 100 µM (inactive) in each case. For the same compound, the GI50 in the test on 786-0 was > 100 µM (inactive); in the test on SK-OV-3 it was > 100 µM (inactive); in the test on OVCAR-4, > 100 µM (inactive); in the test with HCT-15, 87.5 µM; in the test on SF-295 it was > 100 µM (inactive); in the test on UACC-257 it was > 100 µM (inactive). For the same compound, the GI50 with HOP-62, in the test with SN12C and with UO-31 was > 100 µM (inactive) in each case.

As to `CSc1nnc(C(C#N)C#N)nn1`, the GI50 in the test with U-251, in the test on OVCAR-5, with HOP-92, in the test on MOLT-4, with HCC 2998 and with NCI-H226 was > 100 µM (inactive) in each case. Besides, the GI50 in the test on 786-0 was > 100 µM (inactive); with SK-OV-3, > 100 µM (inactive); with OVCAR-4 it was > 100 µM (inactive); in the test on HCT-15, > 100 µM; in the test on SF-295, > 100 µM (inactive); with UACC-257, > 100 µM (inactive). For the same compound, the GI50 with HOP-62, in the test with SN12C and with UO-31 was > 100 µM (inactive) throughout.

For the compound `CCc1ccccc1NC(=O)C1=C(C)NC(C)=C(C(=O)Nc2c(CC)cccc2CC)C1c1ccc2c(c1)OCO2` (stereo not given), the GI50 with U-251 was 14.6 µM (inactive); in the test with OVCAR-5, 18.2 µM (inactive); with HOP-92, 12.7 µM (inactive); with MOLT-4, 19.1 µM (inactive); in the test on HCC 2998, 16.5 µM (inactive); in the test with NCI-H226, 19.1 µM (inactive). Besides, the GI50 in the test with 786-0 was 18.3 µM (inactive); in the test on SK-OV-3, 34.5 µM (inactive); in the test with OVCAR-4 it was 15.2 µM (inactive); in the test on SF-295, 20.3 µM (inactive); in the test with UACC-257 it was 17.7 µM (inactive); in the test with HOP-62, 19.7 µM (inactive). The GI50 is 26 µM (inactive) in the test with SN12C and 16.2 µM (inactive) in the test on UO-31.

`C/C=C/C#CC#C/C=C/C=C/C(O)CCO` (stereo not given): the GI50 in the test on U-251 was > 23.1 µM (inactive); with OVCAR-5, > 23.1 µM (inactive); with HOP-92 it was > 23.1 µM (inactive); in the test on MOLT-4, 17.5 µM (inactive); in the test with HCC 2998, > 23.1 µM (inactive); with NCI-H226, > 23.1 µM (inactive). Besides, the GI50 in the test with 786-0 was > 23.1 µM (inactive); with SK-OV-3, > 23.1 µM (inactive); in the test on OVCAR-4 it was > 23.1 µM (inactive); in the test with HCT-15 it was > 23.1 µM; in the test on SF-295, > 18.7 µM (inactive); in the test with UACC-257 it was > 23.1 µM (inactive). The GI50 in the test with HOP-62, with SN12C and in the test with UO-31 was > 23.1 µM (inactive) throughout.

As for `Cc1cc(=O)n(-c2ccccc2C)c(C)n1`, the GI50 with U-251, in the test with OVCAR-5, in the test with HOP-92, with MOLT-4, in the test with HCC 2998 and in the test with NCI-H226 was > 100 µM (inactive) throughout. For the same compound, the GI50 with 786-0 was > 100 µM (inactive); in the test on SK-OV-3, > 100 µM (inactive); with OVCAR-4, > 100 µM (inactive); in the test with HCT-15 it was > 100 µM; with SF-295 it was > 100 µM (inactive); with UACC-257, > 100 µM (inactive). Further, the GI50 in the test on HOP-62, in the test with SN12C and in the test on UO-31 was > 100 µM (inactive) throughout.

Take `COc1c(O)ccc(/C=N/NC(=S)NCOCCOC(C)=O)c1OC`: the GI50 in the test on U-251, in the test with OVCAR-5, in the test on HOP-92, with HCC 2998, in the test with NCI-H226 and with 786-0 was > 100 µM (inactive) throughout. Besides, the GI50 is > 100 µM (inactive) in the test on SK-OV-3; > 100 µM (inactive) with OVCAR-4; > 100 µM in the test with HCT-15; > 100 µM (inactive) in the test with SF-295; > 100 µM (inactive) in the test on UACC-257; > 100 µM (inactive) with HOP-62. In addition, the GI50 with SN12C and in the test on UO-31 was > 100 µM (inactive) each time.

On to `c1ccc2cc(C3NCCc4nc[nH]c43)ccc2c1` (stereo not given), for which the GI50 was 90.8 µM (inactive) with U-251; > 100 µM (inactive) with OVCAR-5; 49.3 µM (inactive) in the test with HOP-92; 25.1 µM (inactive) in the test on MOLT-4; 59.6 µM (inactive) in the test with HCC 2998; > 100 µM (inactive) in the test on NCI-H226. Besides, the GI50 with 786-0 was 41.3 µM (inactive); in the test on SK-OV-3, > 100 µM (inactive); in the test with OVCAR-4 it was 57 µM (inactive); with HCT-15, 42.6 µM; in the test with SF-295, 68.5 µM (inactive); in the test with UACC-257 it was 26.7 µM (inactive). In addition, the GI50 is > 100 µM (inactive) in the test on HOP-62, 97.5 µM (inactive) in the test with SN12C and 35.8 µM (inactive) in the test on UO-31.

Consider `CCCCN(CCCC)C(=O)C(=O)C(C)C(=O)CC` (stereo not given), for which the GI50 with U-251, with OVCAR-5, in the test on HOP-92, with MOLT-4, in the test with HCC 2998 and with NCI-H226 was > 100 µM (inactive) in each case. Besides, the GI50 in the test on 786-0 is > 100 µM (inactive); with SK-OV-3, > 100 µM (inactive); in the test on OVCAR-4, > 100 µM (inactive); in the test with HCT-15, > 100 µM; in the test with SF-295, > 100 µM (inactive); with UACC-257, > 100 µM (inactive). The GI50 in the test on HOP-62, with SN12C and in the test on UO-31 was > 100 µM (inactive) each time.

For the compound `NNC(=O)N/N=C1\C(=O)N(c2ccc(Cl)c(Cl)c2)C(=O)C(=O)C1c1nc2ccccc2s1` (stereo not given), the GI50 was > 100 µM (inactive) with U-251; > 100 µM (inactive) in the test on HOP-92; 69.3 µM (inactive) with MOLT-4; > 100 µM (inactive) in the test on HCC 2998; > 100 µM (inactive) with NCI-H226; > 100 µM (inactive) with 786-0. Further, the GI50 in the test on SK-OV-3 is > 100 µM (inactive); in the test on OVCAR-4 it was > 100 µM (inactive); with HCT-15 it was > 100 µM; in the test on SF-295, > 100 µM (inactive); with UACC-257, > 100 µM (inactive); in the test on HOP-62 it was > 100 µM (inactive). The GI50 with SN12C and in the test on UO-31 was > 100 µM (inactive) throughout.

For `COc1ccc(N2C(=O)C3CC(c4ccc(C)cc4)c4c([nH]c5ccccc45)C3C2=O)cc1` (stereo not given), the GI50 was 10 µM (inactive) with U-251; > 72.3 µM (inactive) with OVCAR-5; 24 µM (inactive) in the test on HOP-92; 21 µM (inactive) in the test with MOLT-4; 52.7 µM (inactive) in the test on HCC 2998; 9.53 µM (inactive) with NCI-H226. Further, the GI50 is 12.2 µM (inactive) in the test with 786-0; 29.5 µM (inactive) in the test on SK-OV-3; 13.9 µM (inactive) in the test with OVCAR-4; 8.61 µM in the test on HCT-15; > 48.8 µM (inactive) in the test on SF-295; > 100 µM (inactive) in the test with UACC-257. The GI50 in the test with HOP-62 is 18.1 µM (inactive); with SN12C it was 8.87 µM (inactive); in the test on UO-31, > 47.2 µM (inactive).

As for `Cc1ccc(-c2cc(=O)c3cc(C)c(C)c(C(=O)O)c3o2)cc1`, the GI50 in the test with U-251, in the test with OVCAR-5, in the test on HOP-92, in the test on MOLT-4, in the test on HCC 2998 and in the test with 786-0 was > 100 µM (inactive) in each case. Moreover, the GI50 in the test with SK-OV-3 was > 100 µM (inactive); in the test on OVCAR-4, > 100 µM (inactive); in the test on HCT-15, > 100 µM; in the test on SF-295 it was > 100 µM (inactive); in the test on UACC-257, > 100 µM (inactive); in the test on HOP-62, > 100 µM (inactive). The GI50 in the test with SN12C and with UO-31 was > 100 µM (inactive) each time.
